Data: patent US20110166066A1, “CATESTATIN (CST) AND ITS VARIANTS FOR TREATMENT OF CARDIOVASCULAR AND METABOLIC DISORDERS” (priority 2008, published 2011)
No end group written: not given here.

Columns and labels:
[1] = test system: Langendorff perfused rat heart; test: Isoproterenol stimulated Langendorff heart preparations
Protocol: Isoproterenol stimulated preparations—Cardiac preparations were stabilized for 20 min with KHs and then perfused with 5 nM ISO for 10 min. ISO was washed-out with KHs. After returning to control conditions, each heart was perfused with KHs containing a single concentration of WT-Cts […] or G364S-Cts (200 nM) with 5 nM ISO for a further 10 min.
To further describe the antagonistic action of either WT-Cts (33 nM), P370L-Cts (110 nM) or G364S-Cts (200 nM) against ISO-dependent stimulation, dose-response curves were generated by perfusing the heart preparations with KHs enriched with increasing concentrations of ISO (0.1 nM to 1 μM) alone. These curves were then compared to those obtained by exposing other cardiac preparations to the same perfusion medium containing increasing concentrations of ISO (0.1 nM to 1 μM) plus a single concentration of either WT-Cts (33 nM) or P370L-Cts (110 nM) or G364S-Cts (200 nM).
Statistics—Data are expressed as the mean±SEM. Curve fitting was accomplished in the program Kaleidagraph (Synergy Software, Reading, Pa.). Peptide EC50 and IC50 values were interpolated as the concentration that achieved 50% stimulation and inhibition, respectively. For analysis of phosphorylated proteins, levels were quantified using Bio-Rad QuantifyOne and volumes of phosphorylated proteins were divided by the levels of non-phosphorylated proteins to calculate fold activation. Stimulation of protein activity was expressed as fold increase over vehicle-treated control. The means and S.E.M. were calculated for each treatment. Multiple comparisons were made using either one-way ANOVA followed by Bonferroni's post-hoc test or two-way ANOVA. Statistical significance was concluded at p<0.05. Statistics were computed with the program InStat (GraphPad Software, Inc., San Diego, Calif.).
To characterize the inhibitory action of either WT-CST (11, 33 or 110 nM), G364S-CST (200 nM) or P370L-CST (110 nM) toward ISO-dependent stimulation of cardiac function, heart preparations were perfused with KHs containing increasing concentrations of ISO (0.1 nM to 1 μM) either alone or in combination with one of the three CST variants.

C57BL/6 wild-type mice = test: Mouse hind-limb ischemia model; format: in vivo; conditions: for Blood perfusion (LDPI), in words: 3 and 4 weeks after operation
Protocol: Mouse hind-limb ischemia model. Male C57BL/6 wild-type mice at the age of 12 months were subjected to unilateral hind-limb surgery. Briefly, the left femoral artery was exposed, ligated with 5-0 silk ligatures, and excised. Mice were injected with saline or 10 μg catestatin into thigh and calf muscles after operation and every other day for weeks 1 and 2 and 2 times per week for weeks 3 and 4. All further measurements and analyses were performed by investigators blinded to the treatment of the animals.
Blood flow measurement. Blood flow measurements were performed using a laser Doppler perfusion image (LDPI) analyzer (Moor Instruments, USA) as described. To minimize data variables attributable to ambient light and temperature animals were kept on a heating plate at 37° C. before measurement and blood perfusion is expressed as the LDPI index representing the ratio of left (=operated, ischemic leg) versus right (=not-operated, not-ischemic leg) limb blood flow. A ratio of 1 before operation indicates equal blood perfusion of both legs, whereas after femoral artery excision this ratio drops to 0.26, indicating severe attenuation of leg blood supply in the operated leg.
Alkaline phosphatase staining and Immunohistochemistry. For tissue staining, mice were sacrificed and ischemic limb tissues were retrieved after 4 weeks. Specimens were fixed in 10% (v/v) buffered formaldehyde, dehydrated with graded ethanol series and embedded in paraffin. Alternatively, fresh tissue was embedded in OCT compound (TISSUE-TEK®, Sakura Finetek) and snap-frozen in liquid nitrogen. Tissues were sliced into 5-μm sections. Vascular endothelial cells were identified by alkaline phosphatase staining and for assessment of artery/arteriole density sections were stained with a mouse monoclonal alpha-smooth muscle actin antibody (Pharmingen) as described (36). Adductor muscle samples of each leg were divided into 2 parts and capillaries (alkaline phosphatase positive) and arteries (alpha-smooth muscle actin positive) were counted in five sections of each part and are expressed as capillary and arteriole density per mm^2.

SSMKLSFRARAYGFRGPGPQL [WT-CST, catestatin]
Type of antagonism against ISO [1]: non-competitive type of antagonism
Block of ISO-dependent +(LVdP/dT)max ([1]; ISO 5 nM): ~90%
ISO induced coronary dilation ([1]; ISO 5 nM): blocked
ISO-induced positive lusitropism ([1]; ISO 5 nM): blocked
Rank order of potency against ISO ([1]; ISO 5 nM): Order of potency: WT-CST > G364S-CST > P370L-CST
ISO stimulatory effect on LVP ([1]; ISO 5 nM, measured at 5 min): abolished
Coronary pressure (ISO alone or ISO + peptide) ([1]; Table 3, ISO 5 nM): Abolished
Inotropism (ISO alone or ISO + peptide) ([1]; Table 3, ISO 5 nM): Abolished
Lusitropism (ISO alone or ISO + peptide) ([1]; Table 3, ISO 5 nM): Abolished
Blood perfusion (LDPI), in words (C57BL/6 wild-type mice; listed as CST): improved perfusion
Blood perfusion (LDPI), in words (C57BL/6 wild-type mice; listed as catestatin): improved blood perfusion
Capillary density, in words (C57BL/6 wild-type mice; 4 weeks): significantly increased capillary density
Density of arteries/arterioles, in words (C57BL/6 wild-type mice; 4 weeks): increases density of arteries/arterioles
Alpha-smooth muscle actin positive vessels (C57BL/6 wild-type mice; 4 weeks after surgery): 7.5±0.5 vessels/mm^2
Capillaries (alkaline phosphatase positive vessels) (C57BL/6 wild-type mice; 4 weeks after surgery): 356±17 capillaries/mm^2
LDPI ratio (C57BL/6 wild-type mice; 4 wks after induction of ischemia, 10 μg i.m.): 0.94±0.03
Perfusion ratios versus saline (C57BL/6 wild-type mice; after 3 weeks): significantly better
